Our source for the IC50 values is patent US9573930B2 (Quanticel Pharmaceuticals, Inc., priority 2014, dated 2017).

This test has as its target full-length human LSD1 (Homo sapiens (Human), UniProt O60341). The test is described as follows: In vitro enzyme inhibition assay LSD-1 (TR-FRET). The test is classed as biochemical. Particulars: H3K4me1-biotin peptide. The procedure: This assay determines the ability of a test compound to inhibit LSD1 demethylase activity.
The enzymatic assay of LSD1 activity is based on Time Resolved-Fluorescence Resonance Energy Transfer (TR-FRET) detection.
The ability of the compounds disclosed herein to inhibit LSD1 activity was quantified and the respective IC50 value was determined.

In the case of `Cn1c(N2CCC(N)CC2)nc(-c2ccc(C#N)c(F)c2)c(-c2ccc(S(C)(=O)=O)cc2)c1=O` [Example 105, 4-[2-(4-aminopiperidin-1-yl)-1-methyl-5-(4-methylsulfonylphenyl)-6-oxopyrimidin-4-yl]-2-fluorobenzonitrile], the IC50 is below 100 nM. Consider `CNC1CCN(c2nc(-c3ccc(C#N)c(F)c3)c(-c3ccc(OC)cc3)c(=O)n2C)CC1` [Example 11, 2-fluoro-4-[5-(4-methoxy-phenyl)-1-methyl-2-(4-methylamino-piperidin-1-yl)-6-oxo-1,6-dihydro-pyrimidin-4-yl]-benzonitrile], for which the IC50 was below 100 nM. The figure for `N#Cc1ccc(-c2cc(=O)n(CCCO)c(N3CCC(N)CC3)n2)cc1F` [Example 17, 4-[2-(4-amino-piperidin-1-yl)-1-(3-hydroxy-propyl)-6-oxo-1,6-dihydro-pyrimidin-4-yl]-2-fluoro-benzonitrile] is 100 to 1000 nM; for `CN(C)C1CCN(c2nc(-c3ccc(C#N)c(F)c3)c(-c3ccc4cn(C)nc4c3)c(=O)n2C)CC1` [Example 80, 4-[2-(4-dimethylamino-piperidin-1-yl)-1-methyl-5-(2-methyl-2H-indazol-6-yl)-6-oxo-1,6-dihydro-pyrimidin-4-yl]-2-fluoro-benzonitrile] it is below 100 nM.

In turn, `Cn1c(N2CCC(N)CC2)nc(-c2ccc(C#N)cc2)c(-c2ccc(OCCO)cc2)c1=O` [Example 97, 4-[2-(4-aminopiperidin-1-yl)-5-[4-(2-hydroxyethoxy)phenyl]-1-methyl-6-oxopyrimidin-4-yl]benzonitrile] showed an IC50 below 100 nM. The figure for `COc1ccc(-c2c(-c3ccc(C#N)cc3)nc(NC[C@H]3CCNC3)n(C)c2=O)cc1F` [Example 44, 4-{5-(3-fluoro-4-methoxy-phenyl)-1-methyl-6-oxo-2-[(3S)-(pyrrolidin-3-ylmethyl)-amino]-1,6-dihydro-pyrimidin-4-yl}-benzonitrile] is below 100 nM; for `CNC1CCN(c2nc(-c3ccc(C#N)c(F)c3)c(-c3ccc4nn(C)cc4c3)c(=O)n2C)CC1` [Example 65, 2-fluoro-4-[1-methyl-2-(4-methylamino-piperidin-1-yl)-5-(2-methyl-2H-indazol-5-yl)-6-oxo-1,6-dihydro-pyrimidin-4-yl]-benzonitrile] it is below 100 nM; for `COc1ncc(-c2c(-c3ccc(C#N)c(F)c3)nc(N3CCC(N)CC3)n(C)c2=O)cc1F` [Example 26, 4-[2-(4-aminopiperidyl)-5-(5-fluoro-6-methoxy(3-5,6-dihydropyridyl))-1-methyl-6-oxohydropyrimidin-4-yl]-2-fluorobenzenecarbonitrile] it is below 100 nM.
